Patent US20100075926A1, “ACTIVATION OF HISTONE DEACETYLASE 1 (HDAC1) PROTECTS AGAINST DNA DAMAGE AND INCREASES NEURONAL SURVIVAL” (priority 2008, published 2010)

Legend:
Assay type in all cases: biochemical
Settings in all cases: at the indicated concentration (8-40 μM); avg. n = 2; relative to DMSO
recombinant human HDAC1 = biological target: T1, recombinant human HDAC1 (Homo sapiens, UniProt Q13547); assay: Caliper mobility shift deacetylase assay, HDAC1
T1 construct: purchased BPS Biosciences
From the text: (§1) Values indicate % deacetylase inhibition (avg. n=2) relative to a solvent (DMSO) control treatment measured using recombinant human HDAC1 or HDAC2 and Caliper's mobility shift assay technology. Circle color corresponds to compounds shaded by degree of HDAC1 activity (red, decreased; blue, increased). (A) Complete dataset with box outlined with the red dashes corresponding to the region shown highlighted in (B), which in the assay corresponds to negative inhibition.
(§2) To identify small molecule activators of HDAC1, a diverse collection of 1,760 small molecules composed of synthetic compounds, natural products, and a subset of FDA approved drugs were arrayed in 384-well plates as ˜10 mM dimethylsulphoxide (DMSO) stocks. To identify modulators (both activators and inhibitors) of HDACs, a fluorescence-based assay that utilizes Caliper's mobility shift assay technology (Hopkinton, Mass.) was used. This assay is based on the electrophoretic separation of N-acetyl lysine peptide substrate from the deacetylated product, which bears an additional positive charge. […] The product and substrate in each independent reaction were separated using a microfluidic chip (Caliper Life Sciences) run on a Caliper LC3000 (Caliper Life Sciences). The product and substrate fluorophore were excited at 488 nm and detected at 530 nm. Substrate conversion was calculated from the electrophoregram using HTS Well Analyzer software (Caliper Life Sciences). Since the amount of converted substrate is measured, and the reactions were performed at the Km for each enzyme, it is possible to identify both inhibitors and activators of HDACs using this assay.
(§3) Using the mobility shift assay, all compounds were screened in duplicate using a panel of class I and class II HDACs and a N-acetyl lysine peptide substrate. For class I HDACs, HDAC1, HDAC2, and HDAC8 were used. For class IIb HDACs, HDAC6 and to HDAC10 were used. Compounds were incubated for 18-24 hrs and the percent inhibition (avg. n=2) relative to a solvent (DMSO) control treatment of each compound determined through measurement of substrate conversion. […] FIG. 11 provides a list of all of the structures that activated HDAC1 by a value of 5% or greater.

recombinant human HDAC2 = biological target: T2, recombinant human HDAC2 (Homo sapiens, UniProt Q92769); assay: Caliper mobility shift deacetylase assay, HDAC2
T2 construct: purchased BPS Biosciences
From the text: as §1, §2, §3

recombinant human HDAC8 = biological target: T3, recombinant human HDAC8 (Homo sapiens, UniProt Q9BY41); assay: Caliper mobility shift deacetylase assay, HDAC8
T3 sequence (Q9BY41 1-377): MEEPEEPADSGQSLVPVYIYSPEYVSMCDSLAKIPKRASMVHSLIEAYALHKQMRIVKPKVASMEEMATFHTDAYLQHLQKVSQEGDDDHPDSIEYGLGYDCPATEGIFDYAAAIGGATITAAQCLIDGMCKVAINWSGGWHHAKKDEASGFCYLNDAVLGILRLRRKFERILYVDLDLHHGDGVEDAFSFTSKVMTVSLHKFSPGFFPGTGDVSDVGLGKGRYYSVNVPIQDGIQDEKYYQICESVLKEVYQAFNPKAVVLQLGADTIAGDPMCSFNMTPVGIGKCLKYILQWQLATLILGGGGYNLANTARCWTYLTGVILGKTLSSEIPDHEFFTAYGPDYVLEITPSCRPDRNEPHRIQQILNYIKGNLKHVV
Method: as §2
(§4) Using the mobility shift assay, all compounds were screened in duplicate using a panel of class I and class II HDACs and a N-acetyl lysine peptide substrate. For class I HDACs, HDAC1, HDAC2, and HDAC8 were used. For class IIb HDACs, HDAC6 and to HDAC10 were used. Compounds were incubated for 18-24 hrs and the percent inhibition (avg. n=2) relative to a solvent (DMSO) control treatment of each compound determined through measurement of substrate conversion.

recombinant human HDAC10 = biological target: T4, recombinant human HDAC10 (Homo sapiens, UniProt Q969S8); assay: Caliper mobility shift deacetylase assay, HDAC10
T4 sequence (Q969S8 1-669): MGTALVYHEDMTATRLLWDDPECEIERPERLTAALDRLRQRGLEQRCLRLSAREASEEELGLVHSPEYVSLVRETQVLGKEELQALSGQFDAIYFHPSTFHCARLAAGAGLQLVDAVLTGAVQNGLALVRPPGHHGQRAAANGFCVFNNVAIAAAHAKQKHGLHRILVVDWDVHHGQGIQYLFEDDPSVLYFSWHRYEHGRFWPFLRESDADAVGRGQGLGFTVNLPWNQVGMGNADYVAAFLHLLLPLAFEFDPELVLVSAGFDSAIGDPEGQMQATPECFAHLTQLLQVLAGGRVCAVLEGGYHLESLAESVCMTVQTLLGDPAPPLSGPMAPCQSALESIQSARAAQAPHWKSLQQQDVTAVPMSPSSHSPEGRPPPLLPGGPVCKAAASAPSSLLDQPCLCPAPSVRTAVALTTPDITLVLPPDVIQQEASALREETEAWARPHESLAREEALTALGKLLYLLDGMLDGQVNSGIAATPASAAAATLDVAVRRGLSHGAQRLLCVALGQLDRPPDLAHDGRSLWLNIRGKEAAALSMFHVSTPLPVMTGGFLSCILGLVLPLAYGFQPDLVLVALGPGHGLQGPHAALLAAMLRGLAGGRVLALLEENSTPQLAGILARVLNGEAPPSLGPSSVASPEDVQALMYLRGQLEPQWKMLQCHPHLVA
Method: as §2, §4

recombinant human HDAC6 = biological target: T5, recombinant human HDAC6 (Homo sapiens, UniProt Q9UBN7); assay: Caliper mobility shift deacetylase assay, HDAC6
T5 sequence (Q9UBN7 1-1215): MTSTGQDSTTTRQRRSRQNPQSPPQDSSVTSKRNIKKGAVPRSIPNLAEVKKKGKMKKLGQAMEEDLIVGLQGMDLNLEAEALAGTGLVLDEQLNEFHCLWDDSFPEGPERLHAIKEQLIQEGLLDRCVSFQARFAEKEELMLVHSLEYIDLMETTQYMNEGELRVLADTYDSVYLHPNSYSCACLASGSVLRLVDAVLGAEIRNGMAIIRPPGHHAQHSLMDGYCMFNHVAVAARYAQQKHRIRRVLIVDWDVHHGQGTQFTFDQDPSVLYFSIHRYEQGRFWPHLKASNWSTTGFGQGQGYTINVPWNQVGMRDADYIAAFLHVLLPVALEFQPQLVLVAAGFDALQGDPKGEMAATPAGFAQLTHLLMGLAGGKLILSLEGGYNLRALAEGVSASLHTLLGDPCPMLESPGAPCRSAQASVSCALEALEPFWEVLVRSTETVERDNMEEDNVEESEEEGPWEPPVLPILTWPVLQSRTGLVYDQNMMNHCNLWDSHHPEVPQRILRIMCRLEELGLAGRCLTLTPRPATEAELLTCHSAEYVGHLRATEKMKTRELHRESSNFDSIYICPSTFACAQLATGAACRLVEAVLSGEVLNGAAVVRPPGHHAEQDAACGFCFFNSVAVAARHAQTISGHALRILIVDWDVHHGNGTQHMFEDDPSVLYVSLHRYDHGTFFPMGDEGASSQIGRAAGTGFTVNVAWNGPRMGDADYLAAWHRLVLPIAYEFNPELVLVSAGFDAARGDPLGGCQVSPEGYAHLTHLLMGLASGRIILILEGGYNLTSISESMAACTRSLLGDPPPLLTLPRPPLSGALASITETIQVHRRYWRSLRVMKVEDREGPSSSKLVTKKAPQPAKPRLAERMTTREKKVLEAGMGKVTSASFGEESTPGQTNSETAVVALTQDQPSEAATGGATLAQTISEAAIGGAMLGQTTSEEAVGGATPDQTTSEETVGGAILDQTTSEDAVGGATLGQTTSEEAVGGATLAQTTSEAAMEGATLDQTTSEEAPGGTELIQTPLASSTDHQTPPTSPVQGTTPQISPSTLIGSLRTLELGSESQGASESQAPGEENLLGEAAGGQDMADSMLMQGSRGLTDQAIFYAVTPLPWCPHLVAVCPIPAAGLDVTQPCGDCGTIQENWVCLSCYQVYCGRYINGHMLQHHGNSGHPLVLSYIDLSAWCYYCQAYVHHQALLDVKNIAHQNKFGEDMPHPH
Method: as §2, §4

T2 sequence (Q92769 whole entry): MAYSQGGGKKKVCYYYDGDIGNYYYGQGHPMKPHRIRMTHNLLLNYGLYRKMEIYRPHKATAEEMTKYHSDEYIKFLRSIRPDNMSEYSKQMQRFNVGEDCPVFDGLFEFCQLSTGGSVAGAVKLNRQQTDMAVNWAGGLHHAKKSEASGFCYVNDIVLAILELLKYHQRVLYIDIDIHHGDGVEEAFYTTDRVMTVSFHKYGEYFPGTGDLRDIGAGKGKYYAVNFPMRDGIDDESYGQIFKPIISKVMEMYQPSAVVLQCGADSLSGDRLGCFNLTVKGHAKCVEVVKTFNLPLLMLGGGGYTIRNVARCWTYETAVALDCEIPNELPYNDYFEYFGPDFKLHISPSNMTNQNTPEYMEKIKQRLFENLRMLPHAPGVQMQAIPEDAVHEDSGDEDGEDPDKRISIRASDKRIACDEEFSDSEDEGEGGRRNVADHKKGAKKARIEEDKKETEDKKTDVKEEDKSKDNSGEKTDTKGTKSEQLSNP
T1 sequence (Q13547 whole entry): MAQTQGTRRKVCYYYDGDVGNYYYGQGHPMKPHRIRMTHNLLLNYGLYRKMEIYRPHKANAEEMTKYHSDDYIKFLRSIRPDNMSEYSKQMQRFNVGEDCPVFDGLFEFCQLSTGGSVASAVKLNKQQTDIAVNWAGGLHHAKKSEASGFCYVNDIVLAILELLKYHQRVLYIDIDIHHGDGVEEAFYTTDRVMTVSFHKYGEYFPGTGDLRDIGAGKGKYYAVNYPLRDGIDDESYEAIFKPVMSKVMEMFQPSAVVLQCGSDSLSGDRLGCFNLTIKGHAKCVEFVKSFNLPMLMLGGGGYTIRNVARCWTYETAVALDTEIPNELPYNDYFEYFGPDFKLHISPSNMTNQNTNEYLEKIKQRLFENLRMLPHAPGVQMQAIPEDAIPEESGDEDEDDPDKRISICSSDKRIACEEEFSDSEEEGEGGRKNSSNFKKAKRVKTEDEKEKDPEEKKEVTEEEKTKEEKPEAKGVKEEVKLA

Row | Compound | HDAC1 % activation of deacetylase activity (recombinant human HDAC1) | HDAC2 % activation of deacetylase activity (recombinant human HDAC2) | HDAC8 % activation of deacetylase activity (recombinant human HDAC8) | HDAC10 % activation of deacetylase activity (recombinant human HDAC10) | HDAC6 % activation of deacetylase activity (recombinant human HDAC6)
1 | CC1=NN(c2ccc(Br)cc2Br)C(=O)/C1=C(/C)NCc1ccccc1 [TAM-12] | 5% | −1% | 2% | −3% | −4%
2 | COC(=O)[C@H]1[C@H]2C[C@H]3c4[nH]c5ccccc5c4CCN3C[C@H]2CC[C@@H]1O [alpha-yohimbine] | 5% | −5% | 0% | 1% | −2%
3 | CC(=O)N(O)CCCCCNC(=O)CCC(=O)N(O)CCCCCNC(=O)CCC(=O)N(O)CCCCCN [deferoxamine] | 8% | −3% | 4% | 2% | −5%
4 | CC(C)=CCC[C@]1(C)C=Cc2c(O)c3c(c(CC=C(C)C)c2O1)O[C@]12C(=C[C@@H]4C[C@H]1C(C)(C)O[C@@]2(C/C=C(/C)C(=O)O)C4=O)C3=O [gambogic acid] | 22% | −5% | −8% | 13% | −63%
5 | COc1ccc(-c2cc(=O)c3c(O)cc(O)c(-c4cc(-c5cc(=O)c6c(O)cc(OC)cc6o5)ccc4OC)c3o2)cc1 [sciadopitysin] | 19% | −4% | 0% | 19% | −5%
6 | O=c1c(O)cc([C@H]2Oc3cc(O)cc(O)c3C[C@H]2O)cc2c([C@H]3Oc4cc(O)cc(O)c4C[C@H]3O)cc(O)c(O)c12 [theaflavin] | 5% | −8% | −10% | 0% | −79%
7 | ginkgetin K [genxgetin K] | 42% | −7% | −3% | 56% | −18%
8 | tetrahydrogamboic acid | 11% | −6% | −1% | 13% | −10%
